Assay results from patent US10722483B2, “Treatment of NAFLD and NASH” (CymaBay Therapeutics, Inc., priority 2014, dated 2020).
Like-named read-outs stand apart in the source and are kept apart here.

Assays:
[1] = rodent models of NAFLD/NASH; cited from earlier work
[2] = cited from earlier work
[3] = 80 mg/day or placebo, NASH patients; cited from earlier work
[4] = normal mice; cited from earlier work
[5] = genetically obese ob/ob mice; cited from earlier work
[6] = healthy subjects, cited from earlier work
[7] = dyslipidemic subjects with abdominal obesity; cited from earlier work
[8] = development discontinued; cited from earlier work
PPARα = target: T1, PPARα (Homo sapiens, UniProt Q07869); test: Specificity of MBX-8025 compared with PPARα; type: biochemical
T1 sequence (Q07869 1-468): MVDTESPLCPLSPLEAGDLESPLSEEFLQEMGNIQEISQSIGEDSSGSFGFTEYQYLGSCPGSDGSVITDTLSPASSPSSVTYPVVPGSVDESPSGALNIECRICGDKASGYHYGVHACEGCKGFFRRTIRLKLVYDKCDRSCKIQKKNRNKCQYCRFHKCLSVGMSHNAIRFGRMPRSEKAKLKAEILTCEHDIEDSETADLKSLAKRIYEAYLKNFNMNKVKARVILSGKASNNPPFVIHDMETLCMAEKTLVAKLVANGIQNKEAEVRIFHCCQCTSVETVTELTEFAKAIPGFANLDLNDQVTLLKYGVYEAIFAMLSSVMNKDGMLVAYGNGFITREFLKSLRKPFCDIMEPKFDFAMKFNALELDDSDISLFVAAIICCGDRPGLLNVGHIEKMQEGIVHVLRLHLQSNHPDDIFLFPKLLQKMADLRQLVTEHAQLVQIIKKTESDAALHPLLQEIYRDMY

[9] = Example: subjects with NAFLD or NASH treated with MBX-8025 for 6 months; type: in vivo, human; settings: 50 or 100 mg/day for 6 months
Description: Subjects are permitted their usual other medications (e.g. antidiabetic medications such as metformin or […]) but not glitazones, PPAR agonists, OCA, or similar medications. […] At each visit, after a 12-hour fast, blood is drawn and urine collected; and a standard metabolic panel, complete blood count, and standard urinalysis are performed. Blood is analyzed for total cholesterol, HDL-C, LDL-C, VLDL-C, TGs, apoB, and liver transaminases. The subjects also maintain health diaries, which are reviewed at each visit.

[10] = cited from earlier work; remark: listed apart in the source
[11] = NAFLD/NASH; cited from earlier work
[12] = both women and men; cited from earlier work

For `CSc1ccc(C(=O)/C=C/c2cc(C)c(OC(C)(C)C(=O)O)c(C)c2)cc1` [GFT505], which “hepatic steatosis, inflammation, fibrosis and liver dysfunction markers” value [1] is on record?
The value was “decreased”.

What about the “liver dysfunction markers including ALT, ALP and GGT” value ([2]; clinical studies) of the same molecule?
Its value is “decrease”.

What about the “lipid-modifying efficacy (reduction in TGs, non-HDL-C, total cholesterol, LDL-C, apoB; increases in HDL-C)” value ([2]; healthy subjects and patients with T2DM, abdominal obesity, dyslipidemia, pre-diabetes, insulin resistance) of the same molecule?
Its value is “confirmed”.

And the “interim safety analysis at 6 months” value [3]?
The value was “no safety issue”.

For `Cc1cc(SCc2sc(-c3ccc(C(F)(F)F)cc3)nc2C)ccc1OCC(=O)O` [GW510516], which “diet-induced obesity and insulin resistance” value [4] is on record?
The value was “ameliorated”.

What about the “diabetes (glucose and insulin levels)” value [5] of the same molecule?
Its value is “markedly improved”.

What about the “reduction in hepatic fat” value ([6]; one of the Phase 1 studies) of the same molecule?
Its value is 20%.

And the “TGs, LDL-C, apoB, and insulin levels” value ([6]; two Phase 1 studies)?
Its value is “reduce”.

And the “decrease in fasting TGs” value [7]?
Its value is 30%.

And the “decrease in fasting insulin” value [7]?
Its value is 11%.

What about the “reduction in LDL-C” value [7] of the same molecule?
Its value is 23%.

And the “reduction in apoB” value [7]?
Its value is 26%.

What about the “reduction in fasting non-esterified fatty acids” value [7] of the same molecule?
Its value is 40%.

What about the “reduction in hepatic fat” value [7] of the same molecule?
Its value is 20%.

And the “association with cancers in animal studies” value [8]?
Its value is “rapid development of cancers in several organs”.

With `CCO[C@H](COc1ccc(C(F)(F)F)cc1)CSc1ccc(OCC(=O)O)c(C)c1` [MBX-8025, (R)-2-(4-((2-ethoxy-3-(4-(trifluoromethyl)phenoxy)propyl)-thio)-2-methylphenoxy)acetic acid] as the molecule, how does the “specificity for PPARδ compared with PPARα receptor” value (PPARα) read?
The value was > 600 fold.

What about the “improvement in disease as manifested by MRI and liver biopsy” value [9] of the same molecule?
Its value is “dose-related improvement”.

What about the “reduction in LDL-C in the tertile with the highest starting LDL-C levels (187-205 mg/dL)” value ([10]; 100 mg/day) of the same molecule?
Its value is 35%.

What about the “reduction of LDL-C over the total population treated” value ([10]; 100 mg/day) of the same molecule?
Its value is 22%.

And the “reduction (decrease) of LDL-S/VS” value ([10]; 8 weeks)?
The value was 40-48%.

And the “reduction of apoB100 compared to placebo” value ([10]; MBX-8025 50 or 100 mg alone and in combination with atorvastatin 20 mg, 8 weeks, P<0.05)?
Its value is 20-38%.

What about the “raise of HDL-C” value ([10]; MBX-8025 alone and in combination with atorvastatin, 8 weeks) of the same molecule?
The value was 1-12%.

And the “insulin sensitivity (HOMA-IR, fasting plasma glucose, and insulin)” value ([10]; in vivo)?
Its value is “increases insulin sensitivity”.

For `CC(C)c1c(C(=O)Nc2ccccc2)c(-c2ccccc2)c(-c2ccc(F)cc2)n1CC[C@@H](O)C[C@@H](O)CC(=O)O` [atorvastatin], which “reduction (decrease) of LDL-S/VS” value ([10]; 8 weeks) is on record?
Its value is 25%.

For `CCCCCCCCCCC[C@@H](C[C@@H]1OC(=O)[C@H]1CCCCCC)OC(=O)[C@H](CC(C)C)NC=O` [orlistat], which “benefit compared to weight loss alone (diet and exercise)” value [11] is on record?
Its value is “no significant benefit”.

For `CCc1ccc(CCOc2ccc(CC3SC(=O)NC3=O)cc2)nc1` (centres unmarked) [pioglitazone], which “risk of weight gain, edema, congestive heart failure, and osteoporotic fractures” value [12] is on record?
The value was “significantly increased risk”.
